Assay results as given in ChEMBL document CHEMBL1130043, “Chemometric methodologies in a quantitative structure-activity relationship study: the antibacterial activity of 6-aminoquinolones” (1997).

Tests used:
Assay type in all cases: functional
[1] = system: Staphylococcus epidermidis; assay: The compound was tested in vitro for antibacterial activity against Staphylococcus epidermidis CPHL A2 (Gram positive) strain
Providencia stuartii = assay: Antibacterial activity against Providencia stuartii CNUR 5(Gram negative) strain.
Pseudomonas aeruginosa [2] = assay: The compound was tested for in vitro antibacterial activity against Pseudomonas aeruginosa ATCC 9027(Gram negative) strain.
[3] = system: Staphylococcus epidermidis; assay: Antibacterial activity against Staphylococcus epidermidis CPHL A2 (Gram positive) strain, activity is expressed as log2MIC.
Pseudomonas aeruginosa [4] = assay: Antibacterial activity against Pseudomonas aeruginosa ATCC 9027(Gram negative) strain.
Enterococcus faecalis = assay: Antibacterial activity against Streptococcus faecalis LEP Br (Gram positive) strain.
[5] = system: Acinetobacter calcoaceticus; assay: The compound was tested for in vitro antibacterial activity against Acinetobacter calcoaceticus OSMPV 113(Gram negative) strain.
[6] = system: Acinetobacter calcoaceticus; assay: Antibacterial activity against Acinetobacter calcoaceticus OSMPV 113 (Gram negative) strain.
Klebsiella pneumoniae = assay: Antibacterial activity against Klebsiella pneumoniae ATCC 10031 (Gram negative) strain.
Escherichia coli [7] = assay: Antibacterial activity against Escherichia coli ISF 432(Gram negative) strain.
Enterobacter cloacae = assay: Antibacterial activity against Enterobacter cloacae OMNFI 174 (Gram negative) strain.
Escherichia coli [8] = assay: Antibacterial activity against Escherichia coli ATCC 8739(Gram negative) strain.
[9] = system: Staphylococcus epidermidis; assay: The compound was tested in vitro for antibacterial activity against Staphylococcus epidermidis CPHL A2 (Gram positive) strain.
Shigella = assay: Antibacterial activity against Shigella enteritidis (Gram negative) strain.
[10] = system: Staphylococcus epidermidis; assay: Antibacterial activity against Staphylococcus epidermidis HCF Berset C (Gram positive) strain.
Staphylococcus aureus [11] = assay: Antibacterial activity against Staphylococcus aureus ATCC 6538 (Gram positive) strain.
Staphylococcus aureus [12] = assay: Antibacterial activity against Staphylococcus aureus MPR 5 (Gram positive) strain.
Pseudomonas aeruginosa [13] = assay: The compound was tested for in vitro antibacterial activity against Pseudomonas aeruginosa ATCC 9027 (Gram negative) strain.
Staphylococcus aureus [14] = assay: The compound was tested for in vitro antibacterial activity against Staphylococcus aureus MPR 5 (Gram positive) strain.
[15] = system: Acinetobacter calcoaceticus; assay: The compound was tested for in vitro antibacterial activity against Acinetobacter calcoaceticus OSMPV 113 (Gram negative) strain.
Staphylococcus aureus [16] = assay: The compound was tested for in vitro antibacterial activity against Staphylococcus aureus ATCC 6538 (Gram positive) strain.
Escherichia coli [17] = assay: The compound was tested for in vitro antibacterial activity against Escherichia coli ATCC 8739 (Gram negative) strain.
Escherichia coli [18] = assay: The compound was tested for in vitro antibacterial activity against Escherichia coli ISF 432 (Gram negative) strain.

SMILES | Log2 MIC (Providencia stuartii) | Log2 MIC [3] | Log2 MIC (Pseudomonas aeruginosa [4]) | Log2 MIC (Enterococcus faecalis) | Log2 MIC [6] | Log2 MIC (Klebsiella pneumoniae) | Log2 MIC (Enterobacter cloacae) | Log2 MIC (Shigella) | Log2 MIC [10] | other results
O=C(O)c1cn(C2CC2)c2cc(N3CCNCC3)c(F)cc2c1=O [CIPROFLOXACIN] | 11 | 11 | 11 | 8 | 11 | 12 | – | – | – | Log2 MIC [1]: 11; Log2 MIC (Pseudomonas aeruginosa [2]): 11; Log2 MIC [5]: 11
Nc1cc2c(=O)c(C(=O)O)cn(C3CC3)c2cc1Cl | 1 | – | 0 | 0 | 0 | 6 | 3 | 3 | 1 | Log2 MIC (Escherichia coli [7]): 6; Log2 MIC (Escherichia coli [8]): 6; Log2 MIC [9]: 0; Log2 MIC (Staphylococcus aureus [11]): 0; Log2 MIC (Staphylococcus aureus [12]): 0
CN1CCN(c2c(F)cc3c(=O)c(C(=O)O)cn4c3c2SCC4)CC1 [RUFLOXACIN] | 6 | 8 | – | 5 | – | 9 | 8 | 10 | 7 | Log2 MIC (Pseudomonas aeruginosa [13]): 5; Log2 MIC (Staphylococcus aureus [14]): 8; Log2 MIC [15]: 7; Log2 MIC (Staphylococcus aureus [16]): 8; Log2 MIC (Escherichia coli [17]): 9; Log2 MIC (Escherichia coli [18]): 9
